In patent US20250345387A1, “CORONAVIRUS THERAPEUTICS AND TREATMENT METHODS” (priority 2020, published 2025):
“Also recorded” adds a separate entry of the source. Where no end group is shown, it is not given here.

Experiments:
[1] = system: Influenza A virus HKx31 (H3N2); settings: 100 ng/mouse/day; Sugiyama M G et al, 2015; cited from earlier work
[2] = system: histamine-induced vascular leakage; test: Cutaneous histamine challenge, Evans blue dye extravasation; type: in vivo, male FVB mice; settings: for vascular leakage (extravassation of Evans blue dye) vs vehicle treated mice: prophylactic IP dose one hour prior to cutaneous histamine challenge
Source text: 10-week old male FVB mice were purchased from Jackson Laboratories. Mice were housed in a Vivarium on a standard light:dark cycle and were given free access to food and water. On day 0 mice were anesthetized with isoflurane and the entire dorsal area was shaved with an electric shaver. Residual hair was removed via application of depilatory cream. Residual cream was removed with sterile gauze and water. […] Immediately following Evans blue dye administration, and while still under anesthesia, a single PBS injection (dorsal, intradermal, 50 ul) and three equally spaced histamine injections (dorsal, intradermal, 1.25 ug contained in 50 ul) were applied. Once the intradermal injections were complete, the mice were removed from anesthesia and were placed back into their housing cages for 25 minutes.
Cardiac transperfusion After 25 minutes of exposure to histamine the mice were placed under anesthesia with an appropriate volume of 2.5% avertin (100 ul/10 g body weight via intraperitoneal injection). Once a deep plane of anesthesia was produced the mice were place and secured in a supine position, the chest was surgically opened, the heart was exposed and a catheter terminating in a 23 gauge needle was inserted into the left ventricle. Once the catheter was securely in place, a cut in the right atria was performed and 25 ml of cold PBS was delivered, via the catheter at 100 mmHg to flush out all intravascular Evans blue dye. Once a mouse was effectively perfused the dorsal skin was surgically removed. Four, 12 mm skin biopsies were collected (1PBS, 3 histamine) for each mouse using a standardized skin punch. In all cases, the biopsy that received PBS served as a baseline control for that individual mouse.
Quantification of Evans blue dye extravassation Skin biopsies were placed in labelled tubes and placed in a 60 degree Celsius oven for 16 hrs to removed all moisture. […] An Evans blue dye standard curve encompassing high and low experimental data points was constructed such that the amount of Evans blue dye extravassation (ug/g of skin) could be calculated.

[3] = system: Influenza A virus HKx31 (H3N2); type: in vivo, C57BL/6J mice; settings: for overall survival of infected mice: ip
MAPK (Erk2) = test: MAPK phosphorylation ELISA in HUVEC; type: cell-based, human; settings: HUVEC stimulation
Description: HUVECs were cultured as above. Lyates were prepared in (1 mM EDTA, 0.5% Triton X-100, 6M urea, 5 mM NaF, 100 uM PMSF, 25 mM sodium pyrophosphate, 1 mM sodium orthovanadate, pH 7.2-7.4, 1× cOmplete™ mini EDTA-free protease inhibitor). BCA protein concentration kit was used to measure protein concentration of each lysate as per manufacturer's instructions (Thermo Scientific). Samples were subjected to ELISAs that measured phosphorylated MAPK and total MAPK levels according to the manufacturer's protocol (R&D Systems). 20 μg or 10 μg of protein from each sample was loaded in duplicate for phosphorylated MAPK and total MAPK readings respectively. Phosphorylated MAPK:total MAPK ratios were determined for each sample. The level of MAPK phosphorylation for all treatment groups were then normalized to that of the no treatment group (NT, EBM only) in each experiment.

Tie2 receptor [4] = molecular target: T1, Tie2 receptor (Mus musculus, UniProt Q02858); test: Tie2 phosphorylation ELISA in primary mouse lung microvascular endothelial cells (MLMVEC); type: cell-based
T1 construct: host or cells: primary mouse lung microvascular endothelial cells (MLMVEC)
Description: Primary mouse lung endothelial cells (Cell Biologics) were seeded on 100 mm tissue culture plates in complete endothelial basal media (EBM)(Lonza) supplemented with ‘EGM single quots’ (Lonza). […] Following the 15 minute stimulation, cells were placed on ice and washed twice in ice cold PBS. Cell lysates were prepared for use in IC12 lysis buffer (1% NP-40, 20 mM Tris (pH 8.0), 137 mM NaCl, 10% Glycerol, 2 mM EDTA, 1 mM activated sodium orthovanadate). BCA protein concentration kit was used to measure protein concentration of each lysate as per manufacturer's instructions (Thermo Scientific). Samples were subjected to ELISAs that measured phosphorylated Tie2 and total Tie2 levels according to the manufacturer's protocol (mouse Tie2, R&D Systems). 50 μg or 5 μg of protein from each sample was loaded in triplicate for phosphorylated Tie2 and total Tie2 readings respectively. Phosphorylated Tie2:total Tie2 ratios were determined for each sample. The level of Tie2 phosphorylation for all treatment groups was then normalized to that of the no treatment group (NT, complete EBM only) in each experiment.

HUVEC [5] = test: Thrombin- and TNF-α-induced HUVEC destabilisation, impedance (xCELLigence RTCA); type: cell-based, human; settings: for total AUC normalised to vehicle control treatment: equivalent to CI for vehicle control cells
[6] = Pharmacokinetic analysis after intravenous bolus in rats (plasma ELISA); type: in vivo, male Sprague Dawley rats
Description: Indicated amounts (ug/kg) of parental Vasculotide and MPA-Br were intravenously administered via bolus injection to male Sprague Dawley rats. […] The 120 ug/kg dose provided the greatest sensitivity of detection in these studies and as such, PK measures presented pertain to this particular dose level. […] MPA-Br PK was evaluated in a multi-dose (MD) intravenous setting at 120 ug/kg once every 24 hours for three consecutive days.

Tie2 receptor [7] = molecular target: T2, Tie2 receptor (Homo sapiens, UniProt Q02763); test: Tie2 phosphorylation ELISA in HUVEC; type: cell-based; settings: 15 minute stimulation
T2 construct: endogenous in cells; host or cells: HUVEC; HMVEC-tert (human dermal microvascular endothelial cells immortalized with telomerase)
Description: Human umbilical vein endothelial cells (HUVECs) were seeded on 100 mm tissue culture plates in complete endothelial basal media (EBM)(Lonza) supplemented with ‘EGM single quots’ (Lonza) in 20% O2, 5% CO2 and 37° C. humidified chamber according to manufacturer's recommendations. […] Following the 15 minute stimulation, cells were placed on ice and washed twice in ice cold PBS. Cell lysates were prepared for use in 1C12 lysis buffer (1% NP-40, 20 mM Tris (pH 8.0), 137 mM NaCl, 10% Glycerol, 2 mM EDTA, 1 mM activated sodium orthovanadate). BCA protein concentration kit was used to measure protein concentration of each lysate as per manufacturer's instructions (Thermo Scientific). Samples were subjected to ELISAs that measured phosphorylated Tie2 and total Tie2 levels according to the manufacturers protocol. 20 μg or 5 μg of protein from each sample was loaded in duplicate for phosphorylated Tie2 and total Tie2 readings respectively. Phosphorylated Tie2:total Tie2 ratios were determined for each sample. The level of Tie2 phosphorylation for all treatment groups were then normalized to that of the no treatment group (NT, complete EBM only) in each experiment.

HUVEC [8] = test: COVID-19 patient serum induced HUVEC integrity destabilization, impedance (xCELLigence RTCA); type: cell-based, human
recombinant human IgG Fc = molecular target: T3, recombinant human IgG Fc (Homo sapiens, UniProt P01857); test: Tryptophan fluorescence spectroscopy binding to human IgG Fc (negative control); settings: increasing ligand concentrations
T3 construct: purchased R&D Systems
Source text: Ligand and receptor interaction. […] Data was compiled using SoftMax and analyzed using Prism.

Tie2 receptor [9] = molecular target: T4, Tie2 receptor (Rattus norvegicus, UniProt A0A8I5ZW61); test: Tie2 phosphorylation ELISA in primary rat glomerular endothelial cells; type: cell-based; settings: positive control
T4 construct: host or cells: primary rat glomerular endothelial cells
Description: Rat primary glomerular endothelial cells (Cell Biologics) were grown in Complete rat endothelial cell medium/w kit (Cell Biologics) in 20% O2, 5% CO2 and 37° C. humidified chamber and split 1:3 once reaching 80-90% confluency. To examine the activation of Tie2 by MPA-Br in rat kidney glomerular endothelial cells, 95-100% confluent cells were stimulated with indicated concentrations of the test agent in serum-containing media for 15 minutes. Human Ang-1 (R&D Systems) was used as positive control. Cell lysates were collected using lysis buffer IC12 (detailed above) recommended in Human phospho-Tie-2 ELISA kit (R&D Systems), tyrosine-phosphorylated Tie2 and total Tie2 were measured using ELISA (Human phospho-Tie2 and total-Tie2 ELISA kits, R&D Systems) with substitution of capture antibody validated for rat Tie2. Mouse anti-Tie2 antibody (BD Pharmingen™) and rabbit TEK polyclonal antibody (MyBioSource) were used as capture antibody in pTie2 and total Tie2 ELISA, respectively. The level of Tie2 phosphorylation for all treatment groups was then normalized to that of the no treatment group (NT, complete rat endothelial cell medium) in each experiment.

Tie2 receptor [10] = test: Tie2 phosphorylation ELISA in primary cynomolgus monkey glomerular endothelial cells; type: cell-based; settings: positive control
Description: Primary cynomolgus monkey glomerular endothelial cells (Cell Biologics) were cultured according to details provided above for HMVEC^tert. Tie2 activation studies performed on primary cynomolgus monkey glomerular endothelial cells were performed according to approaches detailed above for the rat primary glomerular endothelial cell studies.

Tie2 receptor [11] = test: Tie2 phosphorylation ELISA in primary canine aortic endothelial cells; type: cell-based; settings: positive control
Description: Canine primary aortic endothelial cells (Cell Biologics) were grown in Complete canine endothelial cell medium/w kit (Cell Biologics) in 20% O2, 5% CO2 and 37° C. humidified chamber and split 1:3 once reaching 80-90% confluency. Tie2 activation studies performed on primary cynomolgus monkey glomerular endothelial cells were performed according to approaches detailed above for the rat primary glomerular endothelial cell studies.

[12] = 120 ug/kg intravenous bolus, parental Vasculotide vs MPA-Br
[13] = day 6, MPA-Br 200 ng/day vs parental Vasculotide 500 ng

T4 sequence (A0A8I5ZW61 20-1121): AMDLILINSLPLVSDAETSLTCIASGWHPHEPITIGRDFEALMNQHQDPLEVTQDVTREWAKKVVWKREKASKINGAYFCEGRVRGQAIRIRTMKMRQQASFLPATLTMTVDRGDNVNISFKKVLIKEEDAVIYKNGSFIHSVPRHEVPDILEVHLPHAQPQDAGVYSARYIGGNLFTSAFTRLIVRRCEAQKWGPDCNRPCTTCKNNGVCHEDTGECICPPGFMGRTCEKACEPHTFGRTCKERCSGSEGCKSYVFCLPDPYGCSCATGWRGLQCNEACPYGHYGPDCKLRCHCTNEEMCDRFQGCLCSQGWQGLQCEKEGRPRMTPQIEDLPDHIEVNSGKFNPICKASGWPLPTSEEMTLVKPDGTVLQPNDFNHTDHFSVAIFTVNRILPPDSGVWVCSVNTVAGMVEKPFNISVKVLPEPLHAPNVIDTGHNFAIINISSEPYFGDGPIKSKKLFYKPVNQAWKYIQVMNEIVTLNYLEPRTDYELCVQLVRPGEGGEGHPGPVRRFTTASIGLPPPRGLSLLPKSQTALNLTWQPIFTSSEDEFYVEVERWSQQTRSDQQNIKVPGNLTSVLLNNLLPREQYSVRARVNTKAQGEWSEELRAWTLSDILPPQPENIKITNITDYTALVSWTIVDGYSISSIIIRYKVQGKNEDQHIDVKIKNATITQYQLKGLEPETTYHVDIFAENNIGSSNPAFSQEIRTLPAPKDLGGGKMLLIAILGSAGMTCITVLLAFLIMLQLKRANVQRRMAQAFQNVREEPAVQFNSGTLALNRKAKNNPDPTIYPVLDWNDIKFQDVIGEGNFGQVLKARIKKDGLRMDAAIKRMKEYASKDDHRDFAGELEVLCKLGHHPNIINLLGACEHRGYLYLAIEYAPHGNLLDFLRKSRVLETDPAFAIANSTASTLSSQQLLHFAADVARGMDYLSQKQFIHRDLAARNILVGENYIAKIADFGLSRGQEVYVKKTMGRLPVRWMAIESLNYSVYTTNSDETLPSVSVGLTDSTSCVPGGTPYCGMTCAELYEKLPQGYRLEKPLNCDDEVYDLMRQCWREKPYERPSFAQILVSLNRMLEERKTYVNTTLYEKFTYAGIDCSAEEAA
T1 sequence (Q02858 23-1122): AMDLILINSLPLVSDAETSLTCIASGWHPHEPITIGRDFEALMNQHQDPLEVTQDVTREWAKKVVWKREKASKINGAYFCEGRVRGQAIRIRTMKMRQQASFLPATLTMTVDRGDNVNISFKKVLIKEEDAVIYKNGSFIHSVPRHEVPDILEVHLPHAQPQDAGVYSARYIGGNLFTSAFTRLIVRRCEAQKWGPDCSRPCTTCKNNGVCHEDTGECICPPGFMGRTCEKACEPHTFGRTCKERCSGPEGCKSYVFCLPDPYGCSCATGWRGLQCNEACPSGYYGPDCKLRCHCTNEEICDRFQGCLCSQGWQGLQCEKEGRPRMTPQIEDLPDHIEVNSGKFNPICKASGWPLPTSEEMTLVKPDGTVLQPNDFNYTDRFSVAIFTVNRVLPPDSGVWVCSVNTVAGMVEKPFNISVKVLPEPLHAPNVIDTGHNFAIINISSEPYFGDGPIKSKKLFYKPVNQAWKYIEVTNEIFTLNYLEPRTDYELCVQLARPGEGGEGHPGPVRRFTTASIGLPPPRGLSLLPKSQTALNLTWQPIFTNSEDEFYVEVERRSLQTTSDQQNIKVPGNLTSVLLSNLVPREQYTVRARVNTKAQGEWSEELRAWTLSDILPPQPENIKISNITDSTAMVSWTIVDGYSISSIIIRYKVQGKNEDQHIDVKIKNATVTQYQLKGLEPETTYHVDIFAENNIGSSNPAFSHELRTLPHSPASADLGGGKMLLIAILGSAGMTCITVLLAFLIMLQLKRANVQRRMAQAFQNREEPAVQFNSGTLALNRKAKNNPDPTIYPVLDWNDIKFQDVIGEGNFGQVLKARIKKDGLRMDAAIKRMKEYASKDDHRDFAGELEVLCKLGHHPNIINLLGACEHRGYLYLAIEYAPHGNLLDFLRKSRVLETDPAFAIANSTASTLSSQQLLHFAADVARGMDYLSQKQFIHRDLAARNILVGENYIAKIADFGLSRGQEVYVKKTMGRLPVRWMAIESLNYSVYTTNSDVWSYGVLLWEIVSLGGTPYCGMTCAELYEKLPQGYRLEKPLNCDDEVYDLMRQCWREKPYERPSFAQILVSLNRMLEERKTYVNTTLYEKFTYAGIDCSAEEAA
T2 sequence (Q02763 23-1124): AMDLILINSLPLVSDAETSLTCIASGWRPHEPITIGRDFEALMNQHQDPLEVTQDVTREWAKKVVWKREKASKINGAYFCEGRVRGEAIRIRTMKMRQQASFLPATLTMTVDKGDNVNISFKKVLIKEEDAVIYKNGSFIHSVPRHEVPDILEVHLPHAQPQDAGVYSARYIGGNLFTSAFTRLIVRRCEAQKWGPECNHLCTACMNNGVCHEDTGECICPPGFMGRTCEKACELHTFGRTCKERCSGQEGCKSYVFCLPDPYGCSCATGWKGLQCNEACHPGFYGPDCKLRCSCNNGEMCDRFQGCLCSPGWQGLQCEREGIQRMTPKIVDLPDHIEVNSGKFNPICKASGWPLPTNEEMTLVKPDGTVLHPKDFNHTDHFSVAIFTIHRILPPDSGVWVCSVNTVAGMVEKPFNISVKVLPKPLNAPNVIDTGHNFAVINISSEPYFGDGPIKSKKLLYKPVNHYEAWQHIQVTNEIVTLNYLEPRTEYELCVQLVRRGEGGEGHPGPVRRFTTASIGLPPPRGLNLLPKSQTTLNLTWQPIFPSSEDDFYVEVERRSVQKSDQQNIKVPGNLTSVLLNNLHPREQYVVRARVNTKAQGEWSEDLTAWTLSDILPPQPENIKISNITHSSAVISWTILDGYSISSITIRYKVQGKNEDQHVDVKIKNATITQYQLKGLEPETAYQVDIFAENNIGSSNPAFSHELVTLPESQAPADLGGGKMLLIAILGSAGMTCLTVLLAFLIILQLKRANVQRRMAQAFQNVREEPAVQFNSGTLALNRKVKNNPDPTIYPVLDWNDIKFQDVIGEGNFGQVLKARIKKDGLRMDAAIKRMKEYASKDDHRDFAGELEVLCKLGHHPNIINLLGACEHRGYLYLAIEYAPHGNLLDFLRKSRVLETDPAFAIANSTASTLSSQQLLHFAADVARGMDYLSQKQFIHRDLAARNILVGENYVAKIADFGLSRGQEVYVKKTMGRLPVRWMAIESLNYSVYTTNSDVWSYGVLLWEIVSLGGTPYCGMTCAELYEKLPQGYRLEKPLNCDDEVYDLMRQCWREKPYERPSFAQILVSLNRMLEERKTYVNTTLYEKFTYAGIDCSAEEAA

Molecule: parental Vasculotide: 10 kDa 4-armed polyethylene glycol with Tie2 binding peptides (CHHHRHSF) attached via maleimide; mimics Ang1 [reference compound]
- survival following infection with X31 influenza [1]: ineffective at enhancing survival
- reduction of histamine-induced vascular leakage compared with MPA-Br ([2]; parental Vasculotide 500 ng/mouse vs MPA-Br at equal dose or 125 ng/mouse): performed less well
- vascular leakage (extravassation of Evans blue dye) vs vehicle treated mice [2]: significantly less vascular leakage
- activity score ([3]; mouse, in vivo): significantly improved
- lung oxygenation (SpO2) ([3]; mouse, in vivo): significantly improved
- thermal regulation (body temperature) ([3]; mouse, in vivo): significantly improved
- overall survival of infected mice ([3]; mouse, in vivo): significantly improved overall survival
- activation of MAPK (phosphorylated MAPK:total MAPK) (MAPK (Erk2)): downstream activation of MAPK

Molecule: MPA-Br: T7 peptide linked via 3-mercaptopropionic acid to a bromoacetimide-activated 10K PEG tetramer through a linear sulfane moiety (HHHRHSF; not fully specified (N-terminus); also: linked via 3-mercaptopropionic acid to bromoacetimide-activated 10K PEG tetramer (sulfane), site not given here)
- fold lower concentration for statistically significant Tie2 activation vs parental Vasculotide (Tie2 receptor [4]): 10 fold
- normalized CI overtime compared to untreated HUVEC (HUVEC [5]; TNF-a challenge (0.5 ng/mL), MPA-Br 5 ng/mL): significant increase in normalized CI
- total AUC normalised to vehicle control treatment (HUVEC [5]; TNF-a challenged cells, MPA-Br 5 ng/mL): statistically significant increase in normalized CI
- normalized CI overtime compared to untreated HUVEC (HUVEC [5]; thrombin challenge (0.25 ng/mL), MPA-Br 0.5 to 5 ng/mL): significant increase in normalized CI
- total AUC normalised to vehicle control treatment (HUVEC [5]; thrombin challenged cells, MPA-Br 0.5 to 5 ng/mL): statistically significant increase in normalized CI
- drug accumulation, multi-dose (MD) PK vs single dose ([6]; 120 ug/kg IV once every 24 hours for three consecutive days): no drug accumulation
- clearance rate [6, 12]: similar
- volume of distribution [6, 12]: similar
- doses significantly activating Tie2 (pTie2/total Tie2 vs no treatment) (Tie2 receptor [7]): 10-100 ng
- vascular leakage (extravassation of Evans blue dye) vs vehicle treated mice [2]: significantly less vascular leakage
- arterial oxygenation [3, 13]: superiority to parental Vasculotide
- protection from wasting (fraction of initial body weight) [3, 13]: superiority to parental Vasculotide
- activity score ([3]; mouse, in vivo): significantly improved
- all study endpoints compared to parental Vasculotide ([3]; mouse, in vivo): performed equal, or better than parental Vasculotide
- lung oxygenation (SpO2) ([3]; mouse, in vivo): significantly improved
- thermal regulation (body temperature) ([3]; mouse, in vivo): significantly improved
- overall survival of infected mice ([3]; mouse, in vivo): significantly improved overall survival
- activation of MAPK (phosphorylated MAPK:total MAPK) (MAPK (Erk2)): downstream activation of MAPK
- CI over time after COVID-19 serum challenge (HUVEC [8]): restoration of CI loss
- AUC normalised to vehicle control (HUVEC [8]; COVID-19 patient sample IgM, 0.5 to 5 ng/mL MPA-Br): statistically significant increase in normalized CI
- cell index difference between cells incubated with serum+AV-001 and serum+vehicle control (HUVEC [8]; COVID-19 serum (IgG8, IgM5, IgM6) compared to HD): Significant differences
- total AUC normalised to vehicle control treatment (HUVEC [8]; COVID-19 serum IgG8 and IgM6 (FIG. 10D-E), both AV-001 doses): statistically significant increase in CI
- total AUC normalised to vehicle control treatment (HUVEC [8]; serum HD1, high dose 5 ng/mL): statistically significant increase in normalised cell impedance
- binding to recombinant human IgG Fc (fluorescence intensity) (recombinant human IgG Fc): no dose dependent increase in fluorescence intensity; also recorded: No saturation of binding

B1: human recombinant Ang1: Human recombinant angiopoietin 1, positive control for Tie2 and MAPK activation (protein)
chain: SNQRRSPENSGRRYNRIQHGQCAYTFILPEHDGNCRESTTDQYNTNALQRDAPHVEPDFSSQKLQHLEHVMENYTQWLQKLENYIVENMKSEMAQIQQNAVQNHTATMLEIGTSLLSQTAEQTRKLTDVETQVLNQTSRLEIQLLENSLSTYKLEKQLLQQTNEILKIHEKNSLLEHKILEMEGKHKEELDTLKEEKENLQGLVTRQTYIIQELEKQLNRATTNNSVLQKQQLELMDTVHNLVNLCTKEGVLLKGGKREEEKPFRDCADVYQAGFNKSGIYTIYINNMPEPKKVFCNMDVNGGGWTVIQHREDGSLDFQRGWKEYKMGFGNPSGEYWLGNEFIFAITSQRQYMLRIELMDWEGNRAYSQYDRFHIGNEKQNYRLYLKGHTGTAGKQSSLILHGADFSTKDADNDNCMCKCALMLTGGWWFDACGPSNLNGMFYTAGQNHGKLNGIKWHYFKGPSYSLRSTTMMIRPLDF
- Tie2 phosphorylation compared to no treatment (NT) (Tie2 receptor [9]): significant increase in baseline Tie2 phosphorylation
- Tie2 phosphorylation compared to no treatment (NT) (Tie2 receptor [10]): significant increase in baseline Tie2 phosphorylation
- Tie2 phosphorylation compared to no treatment (NT) (Tie2 receptor [11]): significant increase in baseline Tie2 phosphorylation
